The target in test [1] is T1, Cannabinoid receptor 1 (Homo sapiens, UniProt P21554). The format is functional, cell-based.
In test [2] the target is 5-hydroxytryptamine receptor 2B (Homo sapiens, UniProt P41595). The format is functional, cell-based.
The target in test [3] is T2, Gastrin/cholecystokinin type B receptor (Homo sapiens, UniProt P32239).
T2 sequence (P32239 whole entry): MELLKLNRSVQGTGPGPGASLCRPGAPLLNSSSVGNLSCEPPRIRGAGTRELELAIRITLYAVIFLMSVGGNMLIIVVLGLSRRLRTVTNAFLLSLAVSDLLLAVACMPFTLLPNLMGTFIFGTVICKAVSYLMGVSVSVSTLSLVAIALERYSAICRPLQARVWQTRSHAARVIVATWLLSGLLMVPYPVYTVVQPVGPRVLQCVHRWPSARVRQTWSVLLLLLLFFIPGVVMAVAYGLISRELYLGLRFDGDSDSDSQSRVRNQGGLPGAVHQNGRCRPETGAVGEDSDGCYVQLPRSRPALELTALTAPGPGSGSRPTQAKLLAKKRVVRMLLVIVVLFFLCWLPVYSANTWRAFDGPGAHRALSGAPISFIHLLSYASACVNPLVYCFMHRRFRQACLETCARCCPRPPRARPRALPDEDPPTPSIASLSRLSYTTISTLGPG

Test [4] addresses T3, Thromboxane A2 receptor (Homo sapiens, UniProt P21731).
T3 sequence (P21731 whole entry): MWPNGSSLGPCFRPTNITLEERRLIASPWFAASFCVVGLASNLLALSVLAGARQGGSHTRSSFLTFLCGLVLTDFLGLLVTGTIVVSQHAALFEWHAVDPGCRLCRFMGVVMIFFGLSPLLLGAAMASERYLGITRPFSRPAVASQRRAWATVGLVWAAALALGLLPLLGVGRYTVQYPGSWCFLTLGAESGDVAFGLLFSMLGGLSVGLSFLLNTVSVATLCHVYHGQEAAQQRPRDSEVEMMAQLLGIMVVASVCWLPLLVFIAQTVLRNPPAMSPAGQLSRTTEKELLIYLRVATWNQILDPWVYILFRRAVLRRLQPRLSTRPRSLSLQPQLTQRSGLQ

In test [5] the target is T4, 5-hydroxytryptamine receptor 1A (Homo sapiens, UniProt P08908).
T4 sequence (P08908 whole entry): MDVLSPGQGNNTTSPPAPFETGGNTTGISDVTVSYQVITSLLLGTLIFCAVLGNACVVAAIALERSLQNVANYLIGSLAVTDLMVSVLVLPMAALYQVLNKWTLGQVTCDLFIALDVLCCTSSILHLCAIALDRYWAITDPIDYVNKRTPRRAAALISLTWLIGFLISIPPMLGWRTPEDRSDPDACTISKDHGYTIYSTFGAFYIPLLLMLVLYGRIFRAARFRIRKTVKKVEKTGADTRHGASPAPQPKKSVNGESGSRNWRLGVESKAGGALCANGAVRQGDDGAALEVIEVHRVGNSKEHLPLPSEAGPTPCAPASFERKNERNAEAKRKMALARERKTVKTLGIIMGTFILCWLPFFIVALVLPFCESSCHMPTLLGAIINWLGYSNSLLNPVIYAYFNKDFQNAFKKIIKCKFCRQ
Type of test: functional, cell-based.

Test [6] has as its target Sodium-dependent serotonin transporter (Homo sapiens, UniProt P31645).
The target in test [7] is T1, Cannabinoid receptor 1.
For a further test, the target named is Prothrombin (Homo sapiens, UniProt P00734). The format is functional.
Another test addresses T5, Adenosine receptor A3 (Homo sapiens, UniProt P0DMS8).
T5 sequence (P0DMS8 whole entry): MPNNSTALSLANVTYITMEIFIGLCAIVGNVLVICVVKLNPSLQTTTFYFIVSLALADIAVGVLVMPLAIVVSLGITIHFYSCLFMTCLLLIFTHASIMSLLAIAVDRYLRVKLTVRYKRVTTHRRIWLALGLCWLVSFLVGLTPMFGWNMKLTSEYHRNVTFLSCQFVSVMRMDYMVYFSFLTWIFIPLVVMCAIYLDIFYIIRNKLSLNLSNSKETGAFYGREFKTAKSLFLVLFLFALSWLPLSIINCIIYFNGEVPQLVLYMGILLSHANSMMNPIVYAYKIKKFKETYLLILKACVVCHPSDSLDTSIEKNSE

In test [8] the target is Sodium-dependent noradrenaline transporter (Homo sapiens, UniProt P23975).
Test [9] has as its target T3, Thromboxane A2 receptor. Type of test: functional, cell-based.
For another test, the target named is T6, Estrogen receptor (Homo sapiens, UniProt P03372).
T6 sequence (P03372 whole entry): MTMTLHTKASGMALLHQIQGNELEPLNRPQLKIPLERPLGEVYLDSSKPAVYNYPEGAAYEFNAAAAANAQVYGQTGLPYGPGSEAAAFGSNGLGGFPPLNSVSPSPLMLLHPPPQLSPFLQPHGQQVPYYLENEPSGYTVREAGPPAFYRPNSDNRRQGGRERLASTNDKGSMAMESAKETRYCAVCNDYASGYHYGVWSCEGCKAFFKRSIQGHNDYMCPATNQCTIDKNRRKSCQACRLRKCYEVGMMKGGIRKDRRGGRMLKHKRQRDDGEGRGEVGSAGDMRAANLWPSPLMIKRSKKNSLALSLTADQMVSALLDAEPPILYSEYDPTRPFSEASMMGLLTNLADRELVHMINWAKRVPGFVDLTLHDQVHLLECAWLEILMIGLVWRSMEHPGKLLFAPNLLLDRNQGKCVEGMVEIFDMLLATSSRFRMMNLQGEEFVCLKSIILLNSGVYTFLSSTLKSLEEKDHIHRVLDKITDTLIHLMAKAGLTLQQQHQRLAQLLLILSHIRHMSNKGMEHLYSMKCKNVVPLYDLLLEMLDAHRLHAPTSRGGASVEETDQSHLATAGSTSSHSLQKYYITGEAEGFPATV
Note: assay procedure not described here.

Chain of Sodium-dependent noradrenaline transporter (P23975 whole entry): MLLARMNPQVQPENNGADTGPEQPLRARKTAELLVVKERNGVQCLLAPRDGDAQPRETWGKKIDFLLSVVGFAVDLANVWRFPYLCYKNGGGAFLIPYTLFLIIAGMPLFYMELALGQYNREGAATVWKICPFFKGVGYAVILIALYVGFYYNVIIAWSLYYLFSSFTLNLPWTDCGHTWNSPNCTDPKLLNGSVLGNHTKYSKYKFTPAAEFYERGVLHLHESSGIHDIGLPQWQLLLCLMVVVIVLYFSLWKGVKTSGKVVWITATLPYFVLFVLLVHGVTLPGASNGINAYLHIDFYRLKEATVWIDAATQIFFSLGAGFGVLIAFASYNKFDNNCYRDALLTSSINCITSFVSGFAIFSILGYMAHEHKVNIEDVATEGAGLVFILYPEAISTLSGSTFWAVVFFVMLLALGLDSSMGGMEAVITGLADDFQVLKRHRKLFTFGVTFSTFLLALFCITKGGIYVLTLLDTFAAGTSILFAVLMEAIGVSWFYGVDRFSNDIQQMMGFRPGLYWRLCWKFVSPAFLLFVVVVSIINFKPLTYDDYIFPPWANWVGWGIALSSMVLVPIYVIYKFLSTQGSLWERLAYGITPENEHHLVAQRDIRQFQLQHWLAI
Chain of Sodium-dependent serotonin transporter (P31645 whole entry): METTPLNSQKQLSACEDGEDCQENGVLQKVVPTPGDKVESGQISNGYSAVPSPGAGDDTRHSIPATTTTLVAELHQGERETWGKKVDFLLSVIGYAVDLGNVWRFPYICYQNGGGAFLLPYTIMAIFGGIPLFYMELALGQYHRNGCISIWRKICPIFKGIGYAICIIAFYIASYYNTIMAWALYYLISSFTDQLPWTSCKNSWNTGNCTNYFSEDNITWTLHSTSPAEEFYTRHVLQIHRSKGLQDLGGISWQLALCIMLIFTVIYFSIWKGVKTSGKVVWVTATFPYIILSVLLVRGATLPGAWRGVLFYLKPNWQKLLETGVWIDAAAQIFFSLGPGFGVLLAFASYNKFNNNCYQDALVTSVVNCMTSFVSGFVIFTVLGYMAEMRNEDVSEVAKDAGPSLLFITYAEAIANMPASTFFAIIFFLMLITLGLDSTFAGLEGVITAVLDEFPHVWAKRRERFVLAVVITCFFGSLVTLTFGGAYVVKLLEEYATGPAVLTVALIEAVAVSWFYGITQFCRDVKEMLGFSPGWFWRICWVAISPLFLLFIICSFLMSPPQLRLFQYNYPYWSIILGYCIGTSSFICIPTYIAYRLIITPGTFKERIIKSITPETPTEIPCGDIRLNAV
Chain of 5-hydroxytryptamine receptor 2B (P41595 whole entry): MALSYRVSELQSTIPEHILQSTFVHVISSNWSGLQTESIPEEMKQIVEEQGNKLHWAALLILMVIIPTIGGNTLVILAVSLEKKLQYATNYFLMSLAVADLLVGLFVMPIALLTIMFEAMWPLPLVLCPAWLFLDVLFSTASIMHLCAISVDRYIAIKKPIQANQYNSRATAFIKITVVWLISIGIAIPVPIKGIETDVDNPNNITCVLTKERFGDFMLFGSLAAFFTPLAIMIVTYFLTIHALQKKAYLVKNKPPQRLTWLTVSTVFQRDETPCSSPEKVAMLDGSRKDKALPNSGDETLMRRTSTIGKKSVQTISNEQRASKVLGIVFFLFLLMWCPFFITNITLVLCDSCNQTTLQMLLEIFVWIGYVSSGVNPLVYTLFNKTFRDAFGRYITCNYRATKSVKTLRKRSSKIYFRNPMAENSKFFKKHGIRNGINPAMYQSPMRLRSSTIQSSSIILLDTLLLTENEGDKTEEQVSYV
T1 sequence (P21554 whole entry): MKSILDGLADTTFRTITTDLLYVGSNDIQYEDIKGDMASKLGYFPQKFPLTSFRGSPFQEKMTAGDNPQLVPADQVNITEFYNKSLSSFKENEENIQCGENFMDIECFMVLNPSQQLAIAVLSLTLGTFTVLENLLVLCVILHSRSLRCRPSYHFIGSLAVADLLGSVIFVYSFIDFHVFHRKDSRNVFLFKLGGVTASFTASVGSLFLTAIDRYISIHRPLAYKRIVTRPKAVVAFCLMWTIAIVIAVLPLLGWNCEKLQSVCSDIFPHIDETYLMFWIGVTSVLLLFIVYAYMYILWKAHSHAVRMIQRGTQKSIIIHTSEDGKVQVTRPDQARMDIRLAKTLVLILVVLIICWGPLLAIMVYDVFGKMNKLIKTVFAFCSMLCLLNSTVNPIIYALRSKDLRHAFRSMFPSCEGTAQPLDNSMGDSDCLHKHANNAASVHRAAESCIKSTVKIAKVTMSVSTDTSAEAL

Consider `Cn1nnc2c(C(N)=O)ncn2c1=O` [TEMOZOLOMIDE], for which the AC50 (at Cannabinoid receptor 1 [1]; in test [2]; in test [3]; on Thromboxane A2 receptor [4]; in test [5]; in [6]) was more than 30 µM each time. Moreover, on Cannabinoid receptor 1 [7], the AC50 (usually the midpoint of the concentration-response curve, whichever way the signal moves) was more than 10 µM.

Take `CO[C@H]1C[C@@H]2CC[C@@H](C)[C@@](O)(O2)C(=O)C(=O)N2CCCC[C@H]2C(=O)O[C@H]([C@H](C)C[C@@H]2CC[C@@H](O)[C@H](OC)C2)CC(=O)[C@H](C)/C=C(\C)[C@@H](O)[C@@H](OC)C(=O)[C@H](C)C[C@H](C)/C=C/C=C/C=C/1C` [SIROLIMUS]: the AC50 on Prothrombin was more than 30 µM; on Cannabinoid receptor 1 [1] it was more than 30 µM; on Adenosine receptor A3, 26.4 µM; in test [2], more than 10 µM; in [8] it was more than 30 µM; in [3], more than 30 µM. The AC50 at Thromboxane A2 receptor [9] was more than 30 µM; on Thromboxane A2 receptor [4], more than 30 µM; in test [5], more than 10 µM; at Cannabinoid receptor 1 [7], more than 10 µM; on Estrogen receptor it was more than 30 µM.

`Cc1cn([C@H]2C=C[C@@H](CO)O2)c(=O)[nH]c1=O` [STAVUDINE]: the AC50 on Prothrombin is more than 30 µM; at Cannabinoid receptor 1 [1], more than 30 µM; on Adenosine receptor A3, more than 30 µM; in test [2], more than 10 µM; in [8] it was more than 30 µM; in test [3], more than 30 µM. In addition, the AC50 on Thromboxane A2 receptor [9] is more than 30 µM; on Thromboxane A2 receptor [4], more than 30 µM; in test [5], more than 10 µM; at Cannabinoid receptor 1 [7] it was more than 10 µM.

`NCC(CC(=O)O)c1ccc(Cl)cc1` (stereo not drawn) [BACLOFEN]: the AC50 (at Prothrombin; at Cannabinoid receptor 1 [1]; on Adenosine receptor A3; in test [2]; in test [8]; in test [3]) was more than 30 µM throughout. Moreover, the AC50 on Thromboxane A2 receptor [9] is more than 30 µM; on Thromboxane A2 receptor [4], more than 30 µM; in test [5], more than 30 µM; at Cannabinoid receptor 1 [7], more than 10 µM.

`CS(=O)(=O)c1ccc(C2=C(c3ccccc3)C(=O)OC2)cc1` [ROFECOXIB]: the AC50 is more than 30 µM on Prothrombin; more than 30 µM on Cannabinoid receptor 1 [1]; 18.5 µM on Adenosine receptor A3; more than 30 µM in test [2]; more than 30 µM in [8]; more than 30 µM in [3]. For the same molecule, the AC50 was more than 30 µM at Thromboxane A2 receptor [9], more than 30 µM at Thromboxane A2 receptor [4], 35 µM in [5] and more than 10 µM at Cannabinoid receptor 1 [7].

For the molecule `CC(C)C[C@H]1C(=O)N2CCC[C@H]2[C@]2(O)O[C@](NC(=O)[C@@H]3C=C4c5cccc6[nH]c(Br)c(c56)C[C@H]4N(C)C3)(C(C)C)C(=O)N12` [BROMOCRIPTINE], the AC50 on Prothrombin is more than 30 µM; at Cannabinoid receptor 1 [1], more than 30 µM; on Adenosine receptor A3 it was 1.92 µM; in test [2], 0.538 µM; in test [8] it was more than 30 µM; in [3] it was more than 30 µM. The AC50 on Thromboxane A2 receptor [9] is more than 3 µM; on Thromboxane A2 receptor [4], more than 30 µM; in test [5] it was 0.17 µM; on Cannabinoid receptor 1 [7], more than 10 µM.

As for `CCCCN1C[C@H](O)[C@@H](O)[C@H](O)[C@H]1CO`, the AC50 (in test [2]; in test [3]; on Thromboxane A2 receptor [4]; in test [6]; at Cannabinoid receptor 1 [7]) was more than 30 µM in each case.

`Cc1cccc(Nc2ccccc2C(=O)O)c1C` [MEFENAMIC ACID]: the AC50 was more than 30 µM on Prothrombin; more than 30 µM at Adenosine receptor A3; more than 10 µM in test [2]; more than 30 µM in [8]; more than 30 µM at Thromboxane A2 receptor [9]; more than 10 µM on Thromboxane A2 receptor [4]. The AC50 (in test [5]; at Cannabinoid receptor 1 [7]) was more than 10 µM in each case.

Turning to `O=C(O[C@H]1C[C@H]2CC[C@@H](C1)[N+]21CCCC1)C(O)(c1ccccc1)c1ccccc1` [TROSPIUM], the AC50 (in test [2]; in test [3]; on Thromboxane A2 receptor [4]; in test [5]; in test [6]; at Cannabinoid receptor 1 [7]) was more than 30 µM in each case.

For the molecule `COc1ccccc1OCC(O)CN1CCN(CC(=O)Nc2c(C)cccc2C)CC1` (stereo not drawn) [RANOLAZINE], the AC50 in test [2] is 11 µM; in [3] it was more than 30 µM; on Thromboxane A2 receptor [4], more than 30 µM; in [6], more than 30 µM; on Cannabinoid receptor 1 [7] it was more than 30 µM.

For the molecule `CC[C@H]1OC(=O)[C@H](C)[C@@H](O[C@H]2C[C@@](C)(OC)[C@@H](O)[C@H](C)O2)[C@H](C)[C@@H](O[C@@H]2O[C@H](C)C[C@H](N(C)C)[C@H]2O)[C@](C)(O)C[C@@H](C)CN(C)[C@H](C)[C@@H](O)[C@]1(C)O` [AZITHROMYCIN], the AC50 at Prothrombin was more than 30 µM; at Cannabinoid receptor 1 [1] it was more than 30 µM; in test [2] it was more than 10 µM; in test [8], more than 30 µM; in test [3], more than 30 µM; on Thromboxane A2 receptor [9], more than 30 µM. Also, the AC50 is more than 30 µM on Thromboxane A2 receptor [4], more than 10 µM in [5], more than 10 µM at Cannabinoid receptor 1 [7] and more than 30 µM on Estrogen receptor.

Regarding `CC1(C)NC(=O)N(c2ccc([N+](=O)[O-])c(C(F)(F)F)c2)C1=O` [NILUTAMIDE], the concentration at half-maximal activity (AC50) on Prothrombin is more than 30 µM; in test [2] it was more than 30 µM; in test [8], more than 30 µM; in test [3] it was more than 30 µM; at Thromboxane A2 receptor [9] it was more than 3 µM; at Thromboxane A2 receptor [4] it was more than 30 µM. Also, the concentration at half-maximal activity (AC50) (in test [5]; in test [6]; on Cannabinoid receptor 1 [7]) was more than 30 µM each time.

In the case of `O=C1Nc2ccc(Cl)cc2[C@@](C#CC2CC2)(C(F)(F)F)O1` [EFAVIRENZ], the AC50 at Cannabinoid receptor 1 [1] is more than 30 µM; in test [2], more than 10 µM; in [3], 45 µM; at Thromboxane A2 receptor [4], more than 30 µM; in [5], more than 10 µM; in [6] it was more than 30 µM. This molecule also displayed an AC50 on Cannabinoid receptor 1 [7] of 20.7 µM.

The values are drawn from ChEMBL document CHEMBL5291721, “A preclinical secondary pharmacology resource illuminates target-adverse drug reaction associations of marketed drugs” (Nat Commun, 2023).
